Data published in patent publication EP4714947A1, “CRYSTAL FORM OF PYRIMIDO AZACYCLO COMPOUND, AND PREPARATION METHOD THEREFOR AND USE THEREOF” (TYK Medicines, Inc., priority 2023, dated 2024).
Converted amounts (≈) assume the structure as drawn. Read-outs that look alike come from different tables or passages of the source.

Key:
[1] = Solid-state stability, 7 days at 60 °C/closed and 40 °C/75% RH (HPLC purity, XRPD); format: physicochemical; details: for Purity (Area%) 40 °C/ 75%RH / Purity (Area%) 60 °C/ Closed / XRPD 40 °C/ 75%RH / XRPD 60 °C/ Closed: 7 days; for Purity (Area%) 40 °C/ 75%RH / Purity (Area%) 60 °C/ Closed / Initial purity (Area%): HPLC; for Initial purity (Area%): before storage; for XRPD 40 °C/ 75%RH: crystal form after 40 °C/75% RH; for XRPD 60 °C/ Closed: crystal form after 60 °C/closed
Procedure: HPLC analysis was performed using Agilent HPLC 1260 series instruments. Table 37 HPLC Method for Solubility and Stability Tests

physchem [2] = test: physchem
[3] = Pharmacokinetics in rats after a single dose by gavage; details: for AUC0-last / AUCINF / Cmax / T1/2 / Tmax: SD rats, single gavage dose 10mpk, 1mg/ml in 0.5% MC+1% tween 80 (Uniform suspension), 10 mg/kg; for in vivo exposure levels: rat pharmacokinetic data, compared with free base crystal form I
Procedure: (§1) Blood samples were collected at different time points to determine the drug concentration in the rat plasma after administration of the test substance and relevant pharmacokinetic parameters were calculated.
(§2) The specific preparation method was as follows: 10mg of the test sample was taken, 0.5% MC and 1% Tween 80 was added, the resulting mixture was vortex mixed to obtain a solution with a concentration of 1mg/mL. The solution was freshly prepared before use, mixed well through vortex, and set aside for later use.
(§3) Healthy male SD rats or dogs were used for this study. All animals were fasted before administration and resumed feeding 4 hours after administration.
(§4) About 0.1 mL of blood was collected via the jugular vein from each animal, using EDTA or heparin sodium as anticoagulants. After collected, the blood sample was placed on ice and centrifuged to separate the plasma (centrifugation conditions: 10000 rpm, 5 minutes, and 4 °C).
(§5) The plasma samples were analyzed by LC-MS/MS by the analysis department of the experimental institution.

[4] = Pharmacokinetics in dogs after a single dose by gavage; details: for in vivo exposure levels: dog pharmacokinetic data, compared with free base crystal form I; for AUC0-last / AUCINF / Cmax / T1/2 / Tmax: dogs, single gavage dose 5mpk, 1mg/ml in 0.5%MC+1% tween 80 (Uniform suspension), 5 mg/kg
Procedure: (§6) Blood samples were collected at different time points to determine the drug concentration in the dog plasma after administration of the test substance and relevant pharmacokinetic parameters were calculated.
as §2, §3
(§7) (Time points ≤ 2 hours: ± 2 min; other points: ± 15 min.)
as §4, §5

[5] = Solubility test in biological media and water at 37 °C (HPLC; XRPD of residue); details: for Solubility (µg/mL) 2 h / Solubility (µg/mL) 0.5 h / Solubility (µg/mL) 24 h: calculated using free base; for Solubility (µg/mL) 2 h: 120 min; for Solubility (µg/mL) 24 h: 1440 min
physchem [6] = test: physchem; remark: listed apart in the source
[7] = Rough solubility in 17 solvents by visual inspection at room temperature; details: for solubility: DMSO
[8] = tested on: tumor patients with RET fusion and mutation; details: cited from earlier work
in vivo [9] = details: rat, po, 10 mg/kg
Procedure: as §1, §2, §3, §4, §5

in vivo [10] = details: dog, po, 5 mg/kg
Procedure: as §6, §2, §3, §7, §4, §5

[11] = Evaluation of amorphous free base: suspension stirred in solvent at room temperature for 2 days; format: physicochemical; details: for Result (solid form obtained): suspension stirred at room temperature for 2 days
Procedure: 100 mg of the amorphous free base sample obtained in the present invention was weighed and a solvent was added to form a suspension. The mixture was stirred at room temperature for 2 days, and the results are as follows: […]

[12] = FaSSIF (pH=6.49), LOQ: ~1.0 µg/mL
[13] = crystal form after 24 h in FaSSIF (pH=6.49)
[14] = crystal form after 24 h in FeSSIF (pH=5.00)
[15] = crystal form after 24 h in SGF (pH=1.19)
[16] = crystal form after 24 h in Water (pH=5.45)

SMILES	Purity (Area%) 40 °C/ 75%RH [1] [Area%]	Purity (Area%) 60 °C/ Closed [1] [Area%]	Initial purity (Area%) [1] [Area%]	XRPD 40 °C/ 75%RH [1]	XRPD 60 °C/ Closed [1]	AUC0-last [3] [ng·h/mL]	AUCINF [3] [ng·h/mL]	Cmax [3] [ng/mL]	T1/2 [3] [h]	Tmax [3] [h]	in vivo exposure levels [3]	in vivo exposure levels [4]	AUC0-last [4] [ng·h/mL]	AUCINF [4] [ng·h/mL]	Cmax [4] [ng/mL]	T1/2 [4] [h]	Tmax [4] [h]	Solubility (µg/mL) 2 h [5, 12] [µg/mL]	XRPD (24 h) [5, 13]	XRPD (24 h) [5, 14]	also measured
CCn1ncc2c(Nc3cc(C)[nH]n3)nc([C@H]3CC[C@](OC)(C(=O)N[C@@H](C)c4cnc(-n5cc(F)cn5)cn4)CC3)nc21 [Fumarate crystal form I]	97.914	98.119	98.062	Unchanged	Unchanged	1781.00	1790.00	247.00	2.77	5.00	higher than those of free base crystal form I	higher than those of free base crystal form I	3807.0	4179.0	617	6.87	4.0	5.950	Almost amorphous	Unchanged	solubility at 24 h (physchem [2]; fassif, pH 6.49): 22.7 µg/mL; solubility at 0.5 h (physchem [2]; fessif, pH 5): 84.2 µg/mL; solubility at 2 h (physchem [2]; fessif, pH 5): 28.5 µg/mL; solubility at 24 h (physchem [2]; fessif, pH 5): 20.9 µg/mL; solubility at 0.5 h (physchem [2]; sgf): 210 µg/mL; solubility at 0.5 h (physchem [2]; sgf, pH 1.19): 210 µg/mL; solubility at 2 h (physchem [2]; sgf, pH 1.19): 204 µg/mL; solubility at 24 h (physchem [2]; sgf, pH 1.19): 78.1 µg/mL; XRPD (24 h) [5, 15]: Unchanged; XRPD (24 h) [5, 16]: Unchanged
CCn1ncc2c(Nc3cc(C)[nH]n3)nc([C@H]3CC[C@](OC)(C(=O)N[C@@H](C)c4cnc(-n5cc(F)cn5)cn4)CC3)nc21 [Free base crystal form I]	–	–	–	–	–	1172.00	1197.00	158.00	2.69	4.67	–	–	673.5	684.0	111.7	2.835	3.0	–	–	–	solubility (physchem [6]; 2-me-thf): 11100 to 12500 µg/mL (≈ 18.9 to 21.2 mM); solubility (physchem [6]; acetone): 7100 to 8300 µg/mL (≈ 12.1 to 14.1 mM); solubility (physchem [6]; dcm): 4600 to 5000 µg/mL (≈ 7.81 to 8.49 mM); solubility (physchem [6]; ea): 2200 to 2300 µg/mL (≈ 3.74 to 3.91 mM); solubility (physchem [6]; etoh): < 600 µg/mL; solubility (physchem [6]; hept): < 600 µg/mL; solubility (physchem [6]; ipa): < 600 µg/mL; solubility (physchem [6]; ipac): 1500 to 1600 µg/mL (≈ 2.55 to 2.72 mM); solubility (physchem [6]; mek): 6300 to 7100 µg/mL (≈ 10.7 to 12.1 mM); solubility (physchem [6]; meoh): ~1200 µg/mL (≈ 2.04 mM); solubility (physchem [6]; mtbe): < 600 µg/mL; solubility (physchem [6]; n-buoh): < 600 µg/mL; solubility (physchem [6]; thf): > 40000 µg/mL; solubility (physchem [6]; tol): < 600 µg/mL; solubility (physchem [6]; water): < 600 µg/mL; solubility [7]: > 40000 µg/mL; solubility ([7]; listed as free base crystal form I): >166700 µg/mL; Solubility (mg/mL) ([7]; THF): 41.7~50.0 mg/mL
CO[C@]1(C(=O)N[C@@H](C)c2ccc(-n3cc(F)cn3)nc2)CC[C@H](c2nc(C)cc(Nc3cc(C)[nH]n3)n2)CC1 [BLU-667]	–	–	–	–	–	–	–	–	–	–	–	–	–	–	–	–	–	–	–	–	ORR ([8]; patients with medullary thyroid carcinoma): 40%; ORR ([8]; patients with non-small cell lung cancer): 50%; overall remission rate (ORR) ([8]; tumor patients with RET fusion and mutation): 45%
CCn1ncc2c(Nc3cc(C)[nH]n3)nc([C@H]3CC[C@](OC)(C(=O)N[C@@H](C)c4cnc(-n5cc(F)cn5)cn4)CC3)nc21 [Malate crystal form I]	98.742	98.753	98.772	Unchanged	Unchanged	1209.00	1217.00	177.00	2.31	3.00	higher than those of free base crystal form I	higher than those of free base crystal form I	–	–	–	–	–	2.650	Changed	Almost amorphous	Solubility (µg/mL) 0.5 h ([5]; FeSSIF (pH=5.00), 30 min): 58.771 µg/mL; Solubility (µg/mL) 2 h ([5]; FeSSIF (pH=5.00)): 19.818 µg/mL; Solubility (µg/mL) 24 h ([5]; FeSSIF (pH=5.00)): 16.658 µg/mL; Solubility (µg/mL) 0.5 h ([5]; SGF (pH=1.19), 30 min): 204.753 µg/mL; Solubility (µg/mL) 2 h ([5]; SGF (pH=1.19)): 113.155 µg/mL; Solubility (µg/mL) 24 h ([5]; SGF (pH=1.19)): 79.977 µg/mL; maximum solubility ([5]; SGF medium at 0.5 hours, 30 min): 200 µg/mL; XRPD (24 h) [5, 15]: Changed; XRPD (24 h) [5, 16]: Unchanged
CCn1ncc2c(Nc3cc(C)[nH]n3)nc([C@H]3CC[C@](OC)(C(=O)N[C@@H](C)c4cnc(-n5cc(F)cn5)cn4)CC3)nc21 [Free base crystal form III]	99.253	99.212	99.316	Unchanged	Unchanged	–	–	–	–	–	higher than those of free base crystal form I	higher than those of free base crystal form I	763.5	776.0	151.5	4.275	–	–	–	–	AUC(0-inf) (in vivo [9]): 1260 ng·h/mL; AUC(0-t) (in vivo [9]): 1250 ng·h/mL; Cmax (in vivo [9]): 153 ng/mL; Tmax (in vivo [9]): 6 h; half-life (in vivo [9]): 3.18 h; Tmax (in vivo [10]): 2 h
CCn1ncc2c(Nc3cc(C)[nH]n3)nc([C@H]3CC[C@](OC)(C(=O)N[C@@H](C)c4cnc(-n5cc(F)cn5)cn4)CC3)nc21 [amorphous free base]	–	–	–	–	–	–	–	–	–	–	–	–	–	–	–	–	–	–	–	–	Result (solid form obtained) ([11]; Acetone): Free base crystal form III; Result (solid form obtained) ([11]; Methanol): Free base crystal form I; stability of the solid form in the solvent ([11]; suspension in methanol or acetone, room temperature, 2 days): unstable and easily transformed into other crystal forms
